From PubChem BioAssay AID256 (DTP/NCI, 2004) come the findings set out here.

Toxic doses and inconclusive results are not listed.

In this experiment the test system is CD2F1 mice, L1210 leukemia ip, survival T/C. The experiment is described as follows: NCI In Vivo Anticancer Drug Screen. Data for tumor model L1210 Leukemia (intraperitoneal) in CD2F1 (CDF1) mice. The settings on record: higher = longer survival. The procedure, abridged: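 Ratio T/C, where T is the treated-group value and C the vehicle-dosed control value, from mice implanted with a transplantable tumor.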

Setting [1] is: endpoint: mean survival time, dose: 100.0 mg/kg/injection, schedule: Q04DX003 (ip), vehicle: saline.
Where [2] appears, read: endpoint: mean survival time, dose: 200.0 mg/kg/injection, schedule: Q04DX003 (ip), vehicle: saline.
[3] abbreviates: endpoint: mean survival time, dose: 400.0 mg/kg/injection, schedule: Q04DX003 (ip), vehicle: saline.
Setting [4] is: endpoint: mean survival time, dose: 100.0 mg/kg/injection, schedule: Q01DX009 (ip), vehicle: saline with Tween-80.
Setting [5] is: endpoint: mean survival time, dose: 200.0 mg/kg/injection, schedule: Q01DX009 (ip), vehicle: saline with Tween-80.
The mark [6] stands for this setting: endpoint: mean survival time, dose: 400.0 mg/kg/injection, schedule: Q01DX009 (ip), vehicle: saline with Tween-80.
[7] abbreviates: endpoint: mean survival time, dose: 100.0 mg/kg/injection, schedule: Q01DX009 (ip), vehicle: saline.
Setting [8] is: endpoint: mean survival time, dose: 200.0 mg/kg/injection, schedule: Q01DX009 (ip), vehicle: saline.
Setting [9] is: endpoint: mean survival time, dose: 400.0 mg/kg/injection, schedule: Q01DX009 (ip), vehicle: saline.

Regarding `Cc1ccc(C#N)c2c1CCC2`, the T/C (endpoint: mean survival time, dose: 100.0 mg/kg/injection, schedule: Q01DX001 (ip), vehicle: Klucel (hydroxypropylcellulose) (HPC)) is 103 % of control; the T/C (endpoint: mean survival time, dose: 200.0 mg/kg/injection, schedule: Q01DX001 (ip), vehicle: Klucel (hydroxypropylcellulose) (HPC)) is 95 % of control; the T/C (endpoint: mean survival time, dose: 400.0 mg/kg/injection, schedule: Q01DX001 (ip), vehicle: Klucel (hydroxypropylcellulose) (HPC)) is 103 % of control.

In the case of `CC(C)=CCNc1ncnc2c1ncn2C1OC(COP(=O)(O)O)C(O)C1O` (configuration not stated), the T/C (endpoint: mean survival time, dose: 25.0 mg/kg/injection, schedule: Q01DX005 (ip), vehicle: water) was 103 % of control; the T/C (endpoint: mean survival time, dose: 50.0 mg/kg/injection, schedule: Q01DX005 (ip), vehicle: water) was 104 % of control; the T/C (endpoint: mean survival time, dose: 100.0 mg/kg/injection, schedule: Q01DX005 (ip), vehicle: water) was 103 % of control; the T/C (endpoint: mean survival time, dose: 200.0 mg/kg/injection, schedule: Q01DX005 (ip), vehicle: water) was 114 % of control.

For the compound `O=C(C[n+]1cccc(C(=O)Nc2ccccc2)c1)NCc1ccccc1`, the T/C by setting is: under setting [1], 100 % of control; under setting [2], 96 % of control; under setting [3], 96 % of control.

For `CCCCCC(CN(C)C)C(=O)/C=C\c1ccc(Cl)cc1Cl` (configuration not stated), the T/C (endpoint: mean survival time, dose: 12.5 mg/kg/injection, schedule: Q01DX009 (ip), vehicle: alcohol) was 102 % of control and the T/C (endpoint: mean survival time, dose: 25.0 mg/kg/injection, schedule: Q01DX009 (ip), vehicle: alcohol) is 102 % of control.

Take `NC(N)=NO`: the T/C was 113 % of control (endpoint: mean survival time, dose: 25.0 mg/kg/injection, schedule: Q01DX009 (ip), vehicle: water); 124 % of control (endpoint: mean survival time, dose: 50.0 mg/kg/injection, schedule: Q01DX009 (ip), vehicle: water); 117 % of control (endpoint: mean survival time, dose: 200.0 mg/kg/injection, schedule: Q01DX009 (ip), vehicle: water); 116 % of control (endpoint: mean survival time, dose: 300.0 mg/kg/injection, schedule: Q01DX009 (ip), vehicle: water); 124 % of control (endpoint: mean survival time, dose: 500.0 mg/kg/injection, schedule: Q01DX009 (ip), vehicle: water).

Regarding `C1COC2(CCC3(CC2)OCCO3)O1`, the T/C is, setting by setting: under setting [4], 102 % of control; (endpoint: mean survival time, dose: 100.0 mg/kg/injection, schedule: Q04DX003 (ip), vehicle: saline sonified) 101 % of control; under setting [5], 102 % of control; (endpoint: mean survival time, dose: 200.0 mg/kg/injection, schedule: Q04DX003 (ip), vehicle: saline sonified) 101 % of control; under setting [6], 103 % of control; (endpoint: mean survival time, dose: 400.0 mg/kg/injection, schedule: Q04DX003 (ip), vehicle: saline sonified) 100 % of control.

Turning to `COC(=O)c1c(C)c(-c2ccccc2)c(-c2ccccc2)c(C)c1C(=O)OC`, the T/C is, setting by setting: (endpoint: mean survival time, dose: 100.0 mg/kg/injection, schedule: Q04DX002 (ip), vehicle: saline with Tween-80) 98 % of control; (endpoint: mean survival time, dose: 200.0 mg/kg/injection, schedule: Q04DX002 (ip), vehicle: saline with Tween-80) 95 % of control; (endpoint: mean survival time, dose: 400.0 mg/kg/injection, schedule: Q04DX002 (ip), vehicle: saline with Tween-80) 95 % of control.

For `NC(=S)N/N=C\c1ncccc1O`, the T/C (endpoint: mean survival time, dose: 25.0 mg/kg/injection, schedule: Q03HX024 (ip), vehicle: saline) was 120 % of control.

Consider `CC(NC(=O)OCc1ccccc1)C(=O)NC(CC(=O)O)C(=O)O` (configuration not stated), for which the T/C under setting [1] was 92 % of control.

As for `O=C(NCCCCOc1ccc([N+](=O)[O-])cc1Cl)NC1CCCCC1`, the T/C (endpoint: mean survival time, dose: 100.0 mg/kg/injection, schedule: Q04DX003 (ip), vehicle: saline with Tween-80) is 102 % of control; the T/C (endpoint: mean survival time, dose: 200.0 mg/kg/injection, schedule: Q04DX003 (ip), vehicle: saline with Tween-80) is 94 % of control; the T/C (endpoint: mean survival time, dose: 400.0 mg/kg/injection, schedule: Q04DX003 (ip), vehicle: saline with Tween-80) was 91 % of control.

On to `Cc1ccc(C)c(C(O)C2CC2)c1` (configuration not stated), for which the T/C runs as follows: under setting [7], 96 % of control; under setting [8], 100 % of control; under setting [9], 102 % of control.

As to `CC(O)C1(O)C(O)CC(OC2c3cc4c(c(O)c3[C@@H]3C[C@@]2(C)OC32C=c3cc[nH]c3=N2)C(=O)c2cccc(O)c2C4=O)OC1C` (some centres not stated), the T/C is 114 % of control (endpoint: median survival time, dose: 6.25 mg/kg/injection, schedule: Q01DX009 (ip), vehicle: saline with Tween-80); 118 % of control (endpoint: median survival time, dose: 12.5 mg/kg/injection, schedule: Q01DX009 (ip), vehicle: saline with Tween-80); 113 % of control (endpoint: median survival time, dose: 25.0 mg/kg/injection, schedule: Q01DX009 (ip), vehicle: saline with Tween-80); 97 % of control (endpoint: median survival time, dose: 50.0 mg/kg/injection, schedule: Q01DX009 (ip), vehicle: saline with Tween-80).

In the case of `CC12C(=O)C=CCC1=CCC1C2CCC2(O)C(=O)OC3(C)C4CC5(C)C(COC16OC23C5C6=O)C(=O)O4` (configuration not stated), the T/C is 102 % of control (endpoint: median survival time, dose: 25.0 mg/kg/injection, schedule: Q01DX009 (ip), vehicle: Klucel (hydroxypropylcellulose) (HPC)); 96 % of control (endpoint: median survival time, dose: 50.0 mg/kg/injection, schedule: Q01DX009 (ip), vehicle: Klucel (hydroxypropylcellulose) (HPC)); 100 % of control (endpoint: median survival time, dose: 100.0 mg/kg/injection, schedule: Q01DX009 (ip), vehicle: Klucel (hydroxypropylcellulose) (HPC)); 108 % of control (endpoint: median survival time, dose: 200.0 mg/kg/injection, schedule: Q01DX009 (ip), vehicle: Klucel (hydroxypropylcellulose) (HPC)).

As for `CCCNC1=C(C)C(=O)C2=C(C1=O)[C@H](COC(N)=O)[C@]1(OC)[C@@H]3N[C@@H]3CN21`, the T/C runs as follows: (endpoint: mean survival time, dose: 10.2 mg/kg/injection, schedule: Q01DX001 (ip), vehicle: saline) 108 % of control; (endpoint: mean survival time, dose: 15.5 mg/kg/injection, schedule: Q01DX001 (ip), vehicle: saline) 112 % of control; (endpoint: mean survival time, dose: 23.2 mg/kg/injection, schedule: Q01DX001 (ip), vehicle: saline) 120 % of control; (endpoint: median survival time, dose: 0.39 mg/kg/injection, schedule: Q01DX009 (ip), vehicle: suspension in saline) 93 % of control; (endpoint: median survival time, dose: 0.78 mg/kg/injection, schedule: Q01DX009 (ip), vehicle: saline) 112 % of control; (endpoint: median survival time, dose: 0.78 mg/kg/injection, schedule: Q01DX009 (ip), vehicle: suspension in saline) 93 % of control. In addition, the T/C is 117 % of control (endpoint: median survival time, dose: 1.56 mg/kg/injection, schedule: Q01DX009 (ip), vehicle: saline); 102 % of control (endpoint: median survival time, dose: 1.56 mg/kg/injection, schedule: Q01DX009 (ip), vehicle: suspension in saline); 102 % of control (endpoint: median survival time, dose: 3.12 mg/kg/injection, schedule: Q01DX009 (ip), vehicle: suspension in saline); 166 % of control (endpoint: median survival time, dose: 6.25 mg/kg/injection, schedule: Q01DX009 (ip), vehicle: saline); 104 % of control (endpoint: median survival time, dose: 6.25 mg/kg/injection, schedule: Q01DX009 (ip), vehicle: suspension in saline); 100 % of control (endpoint: median survival time, dose: 12.5 mg/kg/injection, schedule: Q01DX009 (ip), vehicle: saline). The T/C (endpoint: median survival time, dose: 12.5 mg/kg/injection, schedule: Q01DX009 (ip), vehicle: suspension in saline) is 112 % of control.

Take `O=c1ccc2ccccc2o1`: the T/C (endpoint: mean survival time, dose: 50.0 mg/kg/injection, schedule: Q01DX009 (ip), vehicle: Klucel (hydroxypropylcellulose) (HPC)) is 100 % of control; the T/C (endpoint: mean survival time, dose: 100.0 mg/kg/injection, schedule: Q01DX009 (ip), vehicle: Klucel (hydroxypropylcellulose) (HPC)) is 96 % of control; the T/C (endpoint: mean survival time, dose: 200.0 mg/kg/injection, schedule: Q01DX009 (ip), vehicle: Klucel (hydroxypropylcellulose) (HPC)) was 96 % of control.

`CC1(C)N=C(N)N=C(N)N1c1ccc(OCC(=O)Nc2ccc(S(=O)(=O)F)cc2)cc1`: the T/C runs as follows: (endpoint: mean survival time, dose: 50.0 mg/kg/injection, schedule: Q01DX009 (ip), vehicle: saline) 111 % of control; under setting [7], 109 % of control; under setting [8], 115 % of control; (endpoint: mean survival time, dose: 300.0 mg/kg/injection, schedule: Q01DX009 (ip), vehicle: saline) 115 % of control; under setting [9], 121 % of control.

Take `CCCCNC(C)(C)C(S)c1ccc(Cl)cc1` (configuration not stated): the T/C (endpoint: mean survival time, dose: 12.0 mg/kg/injection, schedule: Q04DX003 (ip), vehicle: other) was 96 % of control; the T/C (endpoint: mean survival time, dose: 25.0 mg/kg/injection, schedule: Q04DX003 (ip), vehicle: other) was 105 % of control; the T/C (endpoint: mean survival time, dose: 50.0 mg/kg/injection, schedule: Q04DX003 (ip), vehicle: other) was 94 % of control.

Turning to `NC(=O)c1ncn(C2OC(CO)C(O)C2O)n1` (configuration not stated), the T/C was 124 % of control under setting [4]; 100 % of control under setting [1]; 110 % of control under setting [5]; 115 % of control under setting [2]; 93 % of control under setting [6]; 110 % of control under setting [3].
